Test results: patent US20180161288A1, “TAU AGGREGATION INHIBITOR” (National Center for Geriatrics and Gerontology, priority 2011, published 2018)

Columns and labels:
[1] = biological target: T1, tau (Homo sapiens, UniProt P10636); test: thioflavine T stain of heparin-induced tau aggregation; assay type: biochemical; conditions: 10 μM tau
[2] = biological target: T1, tau; test: sucrose-density gradient centrifugation with SDS-PAGE western blotting of tau; assay type: biochemical; conditions: for amount of tau in fractions Fr3, 4, 5, and 6: compound 100 μM, FIG. 2; for amount of tau (granular and filamentous tau aggregates) fractionated into Fr3 and subsequent fractions: FIG. 11
[3] = biological target: T1, tau; test: quantification of insoluble tau pellet after centrifugation at 250000 xg; assay type: biochemical; conditions: pellet after 250000 xg for 2 h
Procedure: For this analysis, 10-μM tau, a compound (1 μM, 10 μM, or 100 μM), and thioflavine T (a beta-pleated sheet structure-specific detection reagent) were mixed together. Thereafter, heparin, which is a tau aggregation inducer, was added to the mixture, and the resulting mixture was incubated at 37° C., thereby allowing tau to aggregate. Subsequently, the thioflavine T activity in an incubation sample was measured at various times to investigate tau aggregation inhibition effects by the compounds.
To further investigate the effects of these nine compounds on tau aggregation specifically, samples that had been incubated at 37° C. were centrifuged at 250000 ×g for 2 h, the resultant pellets were obtained so that the amount of insoluble tau were quantified.

[4] = biological target: T2, WT tau (Homo sapiens, UniProt P10636); test: tau and acetylated tubulin in microtubule fraction of WT tau-expressing COS-7 cells; assay type: cell-based, African green monkey; conditions: 10 μM, 24 hours
T2 construct: expressed in transfected cells; host or cells: COS-7 (African green monkey kidney)
Procedure: The homogenates were then centrifuged at 3000×g for 5 min at 25° C., and thea supernatant was obtained as a total fraction. The total fraction was further centrifuged at 100000×g for 20 min at 20° C., and a pellet (a microtubule fraction) was obtained. In this manner, the microtubule fraction was taken from the COS-7 cells expressing WT tau, and acetylated tubulin serving as an index of tau and microtubule stabilization was detected.

[5] = biological target: T3, human P301L mutant tau (Homo sapiens, UniProt P10636, P618L); test: SDS-insoluble tau in Neuro2a cells expressing P301L mutant tau; assay type: cell-based; conditions: Neuro2a cells, 0.01, 0.1 and 1 μM isoprenaline for 48 hours; FIG. 3
T3 construct: expressed in transfected cells

[6] = biological target: T3, human P301L mutant tau; test: tau phosphorylation (AT8) in RIPA-soluble fractions of Neuro2a cells; assay type: cell-based; conditions: RIPA-soluble fraction, FIG. 4
Procedure: As cells, Neuro2a cell lines in which human P301L mutant tau (i.e., mutant tau in which 301st proline of tau is changed to leucine) is expressed in stable were used. […] Then, SDS-insoluble fractions were obtained so that a change in the amounts of tau was observed.
In addition, changes of tau phosphorylation in radio-immunoprecipitation assay (RIPA) buffer-soluble fractions obtained from similar cells were analyzed. […] The composition of the RIPA buffer was 50 mM Tris-HCl (pH7.4), 150 mM sodium chloride, 0.25 w/v % sodium deoxycholate, 1 mM EGTA, and 1.0 w/v % NP-40 substitute.

[7] = tested on: P301L tau Tg mice; test: sarkosyl-insoluble tau in brains of P301L tau Tg mice; assay type: in vivo
[8] = biological target: T2, WT tau; test: MC1 dot blotting and AT8 phosphorylation in WT tau-expressing COS-7 cells; assay type: cell-based, African green monkey
From the text: Tau phosphorylations at AT8 sites are known to induce a tau conformational change (that can be detected with the MC1 antibody) observed in AD brains. Thus, WT tau was expressed in COS-7 cells (derived from African green monkey kidney), and a tau conformational change was detected by dot blotting using the MC1 antibody. The dot blotting is a technique of fixing protein to a nitrocellulose membrane or a PVDF membrane without separation through electrophoresis and specifically quantitating the protein amount with enzyme-labeled antibodies.

[9] = tested on: WT tau Tg mice; test: tau dephosphorylation (tau1 antibody) in TBS-soluble fractions from WT tau Tg mice; assay type: in vivo; conditions: TBS-soluble fraction; FIG. 9
From the text: A change in tau phosphorylation in TBS-soluble fractions from WT tau Tg mice was investigated.

[10] = biological target: T1, tau; test: atomic force microscope observation of tau aggregation; assay type: biochemical; conditions: sample incubated for 120 hours; FIG. 12
Procedure: Thereafter, to analyze a change of tau aggregation by d-isoprenaline morphologically, the sample was investigated by using an atomic force microscope. A tau aggregation sample that had been incubated for 120 hours was loaded on a mica board and adsorbed thereon. […] FIG. 12A is a photograph of a control, FIG. 12B is a photograph showing effects of d-isoprenaline on a tau aggregation sample, and FIG. 12C is a graph of measured major axes of tau aggregation.

T1 sequence (P10636 1-441 isoform P10636-8): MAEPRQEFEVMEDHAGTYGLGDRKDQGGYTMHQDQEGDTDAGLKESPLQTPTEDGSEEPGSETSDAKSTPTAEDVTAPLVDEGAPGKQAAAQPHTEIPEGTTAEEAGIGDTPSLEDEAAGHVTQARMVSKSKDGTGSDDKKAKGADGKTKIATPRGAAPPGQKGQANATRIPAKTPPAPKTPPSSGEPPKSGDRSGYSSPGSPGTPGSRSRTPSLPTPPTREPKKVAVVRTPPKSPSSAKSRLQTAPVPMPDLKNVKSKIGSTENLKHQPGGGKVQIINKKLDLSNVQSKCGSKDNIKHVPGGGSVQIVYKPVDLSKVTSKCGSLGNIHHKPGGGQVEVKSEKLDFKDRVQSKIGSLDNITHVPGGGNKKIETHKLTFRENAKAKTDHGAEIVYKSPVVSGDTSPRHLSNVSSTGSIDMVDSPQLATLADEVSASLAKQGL
T2 sequence (P10636 1-441 isoform P10636-8): as above
T3 sequence (P10636 1-441 isoform P10636-8 P301L): as the sequence (P10636 1-441 isoform P10636-8) above, with P301L counted along it

With `CNC[C@H](O)c1ccc(O)c(O)c1` [(R)-(−)-epinephrine] the “thioflavine T activity” value ([1]; FIG. 1, heparin, 37° C.) was “significantly reduced thioflavine T activity”, the “amount of tau in fractions Fr3, 4, 5, and 6” value [2] was “reduced the amount of tau in fractions Fr3, 4, 5, and 6” and the “amount of insoluble tau” value [3] was “reduced the amount of insoluble tau in a concentration dependent manner”.

In the case of `CC(C)NCC(O)c1ccc(O)c(O)c1` (centres unmarked) [isoprenaline], the “amount of tau in the microtubule fraction” value ([4]; FIG. 6A-C) is reported as “increased the amount of tau in the microtubule fraction”, the “amount of acetylated tubulin” value ([4]; FIG. 6D-F) is reported as “further increased the amount of acetylated tubulin” and the “amount of SDS-insoluble tau” value [5] is reported as “reduced the amounts of SDS-insoluble tau”. The “thioflavine T activity” value ([1]; FIG. 1, heparin, 37° C.) was “significantly reduced thioflavine T activity”, the “tau phosphorylation (AT8)” value [6] was “reduced tau phosphorylation” and the “amount of sarkosyl-insoluble tau in the brains” value ([7]; 1.5 mg/g fed mixed in mash for three months, FIG. 7) was “reduced the amount of sarkosyl-insoluble tau”. The “tau phosphorylation (AT8 sites)” value ([8]; FIG. 5C) was “also reduced phosphorylation”, the “tau conformational change detected with MC1 antibody” value ([8]; TBS-soluble fraction, FIG. 5A, 5B) was “reduced the tau conformational change” and the “dephosphorylation of tau labeled by tau1 antibody” value [9] was “induced dephosphorylation of tau”. The “amount of tau in fractions Fr3, 4, 5, and 6” value [2] was “reduced the amount of tau in fractions Fr3, 4, 5, and 6”.

In the case of `NC[C@H](O)c1ccc(O)c(O)c1` [norepinephrine], the “thioflavine T activity” value ([1]; FIG. 1, heparin, 37° C.) is reported as “significantly reduced thioflavine T activity”.

With `CC(C)NCC(O)c1ccc(O)c(O)c1` (racemic) [d/l-isoprenaline, mixture of (S)-(+)-isoprenaline and (R)-(−)-isoprenaline] the “thioflavine T activity” value ([1]; compound 1-100 μM, FIG. 10) was “inhibition of thioflavine T activity” and the “amount of tau (granular and filamentous tau aggregates) fractionated into Fr3 and subsequent fractions” value [2] was “apparently reduced the amount of tau”.

With `[Cl-].[Li+]` [lithium chloride] the “amount of SDS-insoluble tau” value [5] was “reduced the amounts of SDS-insoluble tau”.

For `CC(C)NC[C@@H](O)c1ccc(O)c(O)c1` [d-isoprenaline, (S)-(+)-isoprenaline], the “thioflavine T activity” value ([1]; compound 1-100 μM, FIG. 10) was “inhibition of thioflavine T activity similar to that of d/l-isoprenaline”, the “amount of insoluble tau in cerebral cortices” value ([7]; mice aged 20-21 months, 2.168 mg/g fed in mash for three months, FIGS. 13, 14) was “apparently reduced the amount of insoluble tau” and the “amount of insoluble tau in hippocampi” value ([7]; mice aged 20-21 months, 2.168 mg/g fed in mash for three months, FIGS. 15, 16) was “apparently reduced the amount of insoluble tau”. The “number of tau aggregates having major axes of 20 nm or more” value [10] was “apparently reduced the number of tau aggregates” and the “amount of tau (granular and filamentous tau aggregates) fractionated into Fr3 and subsequent fractions” value [2] was “apparently reduced the amount of tau”.

`NCCc1ccc(O)c(O)c1` [dopamine] was tested, and the “thioflavine T activity” value ([1]; FIG. 1, heparin, 37° C.) was “significantly reduced thioflavine T activity”.
